Earlier results on 2 molecules are cited in patent US12233110B2, “Compositions comprising pharmaceutically acceptable salts of glucagon-like peptide-1 analogs and uses thereof” (i20 Therapeutics, Inc., priority 2021, dated 2025).

The conditions of this data set: Reference Data.

Take `C[N+](C)(C)CCO` [choline]: the pKa entry is reported as “approximately 14”.
On to `O=C(O)O` [bicarbonate], for which the pKa result was “approximately 6”.
